The term IC50 denotes the concentration at which inhibition is half-maximal.

Structures are written as SMILES. Some results are limits rather than exact numbers.

The subject of one assay is NEV-R. Description: MT4 cell assay, antiviral HIV activity (propidium iodide). It is filed as cell-based. To be noted: Human immunodeficiency virus 1, MT4, read-out: IC50 (nM) Range.
The next assay relates to HIV-1 (strain IIIB). The assay is described as above. It is filed as cell-based. Particulars: Human immunodeficiency virus 1, IIIB; Virus Type HIV-1; Assay MT4; read-out: IC50 (nM) Range. The procedure:
Antiviral HIV activity and compound-induced cytotoxicity were measured in parallel by means of a propidium iodide based procedure in the human T-cell lymphotropic virus transformed cell line MT4. Aliquots of the test compounds were serially diluted in medium (RPMI 1640, 10% fetal calf serum (FCS), and gentamycin) in 96-well plates (Costar 3598) using a Cetus Pro/Pette. Exponentially growing MT4 cells were harvested and centrifuged at 1000 rpm for 10 min in a Jouan centrifuge (model CR 4 12). Cell pellets were resuspended in fresh medium (RPMI 1640, 20% FCS, 20% IL-2, and gentamycin) to a density of 5×10^5 cells/ml. Cell aliquots were infected by the addition of HIV-1 (strain IIIB) diluted to give a viral multiplicity of infection of 100×TCID50. A similar cell aliquot was diluted with medium to provide a mock-infected control. Cell infection was allowed to proceed for 1 hr at 37° C. in a tissue culture incubator with humidified 5% CO2 atmosphere. After the 1 hr incubation the virus/cell suspensions were diluted 6-fold with fresh medium, and 125 μl of the cell suspension was added to each well of the plate containing pre-diluted compound. Plates were then placed in a tissue culture incubator with humidified 5% CO2 for 5 days. At the end of the incubation period, 27 μl of 5% Nonidet-40 was added to each well of the incubation plate. After thorough mixing with a Costar multitip pipetter, 60 μl of the mixture was transferred to filter-bottomed 96-well plates. The plates were analyzed in an automated assay instrument (Screen Machine, Idexx Laboratories). The control and standard used was 3′-azido-3′-deoxythymidine tested over a concentration range of 0.01 to 1 μM in every assay. […] The assay-makes use of a propidium iodide dye to estimate the DNA content of each well.
The antiviral effect of a test compound is reported as an IC50, i.e. the inhibitory concentration that would produce a 50% decrease in the HIV-induced cytopathic effect. This effect is measured by the amount of test compound required to restore 50% of the cell growth of HIV-infected MT4 cells, compared to uninfected MT4 cell controls. IC50 was calculated by RoboSage, Automated Curve Fitting Program, version 5.00, 10 Jul. 1995.
For each assay plate, the results (relative fluorescence units, rfU) of wells containing uninfected cells or infected cells with no compound were averaged, respectively. For measurements of compound-induced cytotoxicty, results from wells containing various compound concentrations and uninfected cells were compared to the average of uninfected cells without compound treatment. Percent of cells remaining is determined by the following formula: Percent of cells remaining=(compound−treated uninfected cells, rfU/untreated uninfected cells)×100.
A level of percent of cells remaining of 79% or less indicates a significant level of direct compound-induced cytotoxicity for the compound at that concentration. When this condition occurs the results from the compound-treated infected wells at this concentration are not included in the calculation of IC50.
For measurements of compound antiviral activity, results from wells containing various compound concentrations and infected cells are compared to the average of uninfected and infected cells without compound treatment. Percent inhibition of virus is determined by the following formula: Percent inhibition of virus=(1−((ave. untreated uninfected cells−treated infected cells)/(ave. untreated uninfected cells−ave. untreated infected cells)))×100

Turning to `Cc1cc(S(N)(=O)=O)ccc1NC(=O)COc1ccc(Cl)cc1C(=O)c1cc(Cl)cc(C#N)c1` [Compound 475], the IC50 with NEV-R and in the assay on HIV-1 (strain IIIB) was less than 10 nM throughout.
With `Cc1cc(S(N)(=O)=O)ccc1NC(=O)COc1ccc(Cl)cc1C(=O)c1cc(F)cc(C(F)(F)F)c1` [Compound 78], the IC50 in the assay on NEV-R and in the assay on HIV-1 (strain IIIB) was less than 10 nM throughout.
As to `Cc1cc2cn[nH]c2cc1NC(=O)COc1ccc(Cl)cc1C(=O)c1cccc(C#N)c1` [Compound 453], the IC50 with NEV-R and with HIV-1 (strain IIIB) was less than 10 nM in each case.
Regarding `Cc1cc(C#N)cc(C(=O)c2cc(Cl)ccc2OCC(=O)Nc2cnc(S(N)(=O)=O)cc2C)c1` [Compound 587], the IC50 in the assay on NEV-R and with HIV-1 (strain IIIB) was less than 10 nM in each case.
Turning to `Cc1cc(OCCCS(N)(=O)=O)ccc1NC(=O)COc1ccc(Cl)cc1C(=O)c1cc(F)cc(C(F)(F)F)c1` [Compound 257], the IC50 in the assay with NEV-R and with HIV-1 (strain IIIB) was less than 10 nM throughout.
Consider `Cc1cc(S(N)(=O)=O)ccc1NC(=O)COc1ccc(Cl)cc1C(=O)c1cc(F)cc(F)c1` [Compound 62], for which the half-maximal inhibitory concentration (IC50) in the assay on NEV-R and in the assay on HIV-1 (strain IIIB) was less than 10 nM each time.
Consider `Cc1cc(S(N)(=O)=O)ccc1NC(=O)COc1ccc(Cl)cc1C(=O)c1cccc(C#N)c1` [Compound 448], for which the IC50 in the assay with NEV-R and in the assay on HIV-1 (strain IIIB) was less than 10 nM in each case.
For `Cc1cc(C#N)cc(C(=O)c2cc(Cl)ccc2OCC(=O)Nc2ccc(S(N)(=O)=O)cc2C)c1` [Compound 564], the IC50 in the assay on NEV-R and in the assay on HIV-1 (strain IIIB) was less than 10 nM each time.
For the compound `Cc1cc(C#N)cc(C(=O)c2cc(Cl)ccc2OCC(=O)Nc2ccc(S(N)(=O)=O)nc2C)c1` [Compound 503], the IC50 in the assay on NEV-R and in the assay with HIV-1 (strain IIIB) was less than 10 nM throughout.
Take `Cc1cc2nc[nH]c2cc1NC(=O)COc1ccc(Cl)cc1C(=O)c1cc(F)cc(C(F)(F)F)c1` [Compound 239]: the IC50 in the assay on NEV-R and in the assay on HIV-1 (strain IIIB) was less than 10 nM each time.
As to `Cc1cc(S(N)(=O)=O)ccc1NC(=O)COc1ccc(Cl)cc1C(=O)c1cccc(C#N)n1` [Compound 637], the IC50 with NEV-R and in the assay with HIV-1 (strain IIIB) was less than 10 nM each time.
Turning to `CCc1cc(C#N)cc(C(=O)c2cc(Cl)ccc2OCC(=O)Nc2ccc(S(N)(=O)=O)cc2C)c1` [Compound 498], the IC50 with NEV-R and with HIV-1 (strain IIIB) was less than 10 nM in each case.
On to `Cc1cc(C)cc(C(=O)c2cc(Cl)ccc2OCC(=O)Nc2ccc(S(N)(=O)=O)cc2C)c1` [Compound 478], for which the IC50 in the assay with NEV-R and in the assay on HIV-1 (strain IIIB) was less than 10 nM each time.
With `Cc1cc(S(N)(=O)=O)ccc1NC(=O)COc1ccc(Cl)cc1C(=O)c1cc(F)cc(C#N)c1` [Compound 491], the IC50 in the assay with NEV-R and with HIV-1 (strain IIIB) was less than 10 nM each time.
As for `Cc1cc(C#N)cc(C(=O)c2cc(Cl)ccc2OCC(=O)Nc2ccc(OCCCN3CC=CC3)cc2C)c1` [Compound 593], the IC50 in the assay on NEV-R and in the assay on HIV-1 (strain IIIB) was less than 10 nM each time.

The values above are taken from patent US7273863B1, “Benzophenones as inhibitors of reverse transcriptase” (SmithKline Beecham Corporation, priority 1999, dated 2007).
